From patent US20100210597A1, “C21-Deoxy Ansamycin Derivatives as Antitumor Agents” (priority 2007, published 2010)
In brackets after ≈: the same amount, converted by molar mass. Read-outs that look alike come from different tables or passages of the source.

Assays:
[1] = Water solubility assay, thermodynamic measurement; format: physicochemical; settings: 5% glucose, 6 hours, room temperature
Experimental: Thermodynamic Measurements: • The appropriate amounts of compound to make solutions of the compounds at 2, 5, 10 and or 20 mM were mixed with the appropriate amounts of 5% glucose and with DMSO in brown glass vials and shaken at room temperature on an IKA® vibrax VXR shaker. After 6 hours the resulting suspensions/solutions were centrifuged for 20 min at 13200 rpm. • Aliquots of the supernatant fluid were then analysed by an Agilent 1100 HPLC coupled to a Bruker Daltonics Esquire3000 electrospray mass spectrometer (for details see specific examples herein). Chromatography was achieved over a Phenomenex Hyperclone column, BDS C18 3u (150×4.6 mm), with a linear gradient of acetonitrile:water (40:60 to 100) over 11 min at 1 mL/min. UV absorbance was monitored at λ=258 and 280 nm. • All analyses were performed in triplicate and the solubilities of individual compounds calculated by comparing their solubility in 5% glucose with an assumed solubility of 100% in DMSO.
Solubility in 2% DMSO in PBS at each time point was determined by comparing total peak areas for each chromatogram with mean total peak area for chromatograms produced from the corresponding 6 hour DMSO solutions. (Mean total peak area in DMSO solutions was assumed to be equivalent to a 0.5 mM solution). The solubility of compound 17 was measured by a thermodynamic assay as described in the general methods.

[2] = In vitro Caco-2 assay for cell permeability; format: in vitro ADME; settings: human, Caco-2, pH 7.4, 10 uM, 2 hour incubation
Experimental: (§1) Caco-2 cells (ATCC Cat. # HTB-37) were grown on fibrillar collagen-coated, microporous, polycarbonate membranes in 24-well BioCaot™ insert plates. Following 5-day growth in Eagle's minimum essential medium supplemented with 10% FBS, the cells were exposed to BioCoat Enterocyte Differentiation Medium (BD, Cat. # 05496) for 2 days to induce enterocytic differentiation. Prior to dosing, the transepithelial electric resistance (TEER) of the Caco-2 cells in each well was measured to ensure the quality of the monolayers.
(§2) The stock solutions of test compounds were prepared at 3 mM in DMSO. Dosing solutions were prepared in the permeability assay buffer at 10 μm. The permeability assay buffer was Hank's balanced salt solution containing 10 mM HEPES at a pH of 7.4±0.2.
(§3) The Caco-2 cells were dosed with the test compounds on either apical side (for A-to-B permeation) or basolateral side (for B-to-A permeation) and incubated at 37° C. with 5% CO2 and 90% relative humidity. The testing for each compound was performed in duplicate. After 2 hour incubation, a 20-μL sample was taken from each of dosing solutions and both donor and receiver compartments. To ensure the validity of the Caco-2 assay, propranolol and vinblastine were used as a high- and a low- to medium-permeability positive control, respectively. Vinblastine also served as a P-gp substrate, tested in conjunction with a P-gp inhibitor, verapamil.
(§4) To quantify test compounds by LC/MS/MS, a related geldanamycin-like compound, 17-methoxyethylamino geldanamycin (Schnur et al., 1995), was used as the internal standard. The calculation of permeability of each compound involved only the concentration ratio of the same test compound, the concentration ratio was expressed in the peak area ratio of the test compound to the internal standard. The peak area ratio of each compound was derived by LC-MS/MS.
(§5) The apparent permeability coefficient Papp was calculated as below: […]
(§6) dCr: cumulative concentration in the receiver compartment in M. dt: duration of the assay (i.e., 7200 seconds). Vr: volume of the receiver compartment in cm^3. A: area of the cell monolayer (0.31 cm^2 for 24-well BioCoat™ plate). C0: concentration of the dosing solution in M.
(§7) The in vitro permeability of 20 and the parent 17 were assayed using caco-2 cells, as described in the general methods. All compounds were analysed at a concentration of 10 uM.

[3] = tested on: Caco-2 cells; assay: In vitro Caco-2 assay for cell permeability; format: in vitro ADME; settings: 10 uM, 2 hour incubation
Experimental: as §1, §2, §3, §4, §5, §6, §7

[4] = In vivo pharmacokinetic assay in mice; design: species or system mouse; settings: female CD-1 mice
Experimental: The test compound was prepared directly in endotoxin free water. A single dose of 10 mg/kg p.o. or 3 mg/kg i.v. was administered to groups of female CD1 mice (3 mice for each compound per time point). Dose volumes were 10 mL/kg for both oral and intravenous administration. At 4 minutes and 0.25, 0.5, 1, 2, 4, 8, 24 hours groups were sacrificed and plasma was collected from each mouse for further analysis. For oral dosing, a single dose of Test Article was administered via oral gavage to the mice. For intravenous dosing, a single dose of Test article was administered intravenously to mice via the tail veins.
The concentration of the relevant compounds in the plasma samples was determined by HPLC with MS detection.
• Mass spectrometer: API 3200 Q Trap triple quadruple mass spectrometer • Liquid chromatography: Agilent 1200/PAL HTC Autosampler • Ionization Mode: Electrospray (may be changed depending on the TA) • Monitoring: Multiple Reaction Monitoring • LC chromatography BetaBastic-8, 50×2.1 mm, 5 μm (may separation: be changed depending on the TA)
Based on the peak area ratios of test article to an internal standard, 17-Methoxyethylamino Geldanamycin (Schnur et al., 1995), concentrations of an unknown sample were obtained by a calibration curve.
Test plasma sample (0.05 ml), analyte free mouse whole serum (0.05 ml), internal standard solution (0.1 ml of 10 mg/mL 17-Methoxyethylamino geldanamycin (Schnur et al., 1995) dissolved in methanol) and acetonitrile (0.5 ml) were pipetted into a 2-mL polypropylene tube and the contents of the tubes were mixed for a minimum of 5 minutes (Vibrax mixer). The tubes were then centrifuged in a microfuge for a minimum of 2 minutes at 12,000 rpm. 0.1 ml of the solvent layer was transferred into a 2-mL polypropylene tube containing 1 mL acid diluent (0.1% formic acid). The tubes were then mixed for a minimum of 5 minutes (Vibrax mixer) and then centrifuged at approximately 3500 rpm for 5 minutes. The extracts were transferred to auto-sampler vials and placed in the auto sampler tray which was set at ambient temperature. The auto-sampler was programmed to inject a 0.005 ml aliquot of each extract onto the analytical column.
In vivo confirmation of the cleavage of 20 to the parent molecule, 17, was carried out as described in the general methods.
Female CD-1 mice were given single doses of 20, either intravenously at 3 mg/kg, or orally at 10 mg/kg. Plasma samples were then collected at 8 time points (0.067, 0.25, 0.5, 1, 2, 4, 8 and 24 h postdose) over a 24-h period. The amounts of 20 and 17 in the samples were then analysed. […] After iv administration, 20 was only detected up to 0.25 hours after dosing, whilst 17 was detected up to 4 hours after dosing.

[5] = tested on: Hsp90; settings: shown in WO2007/074347 (there compound 14); cited from earlier work

CO[C@H]1C[C@H](C)Cc2cc(O)cc(c2)NC(=O)/C(C)=C/CC[C@H](C)[C@@H](OC(N)=O)/C(C)=C/[C@H](C)[C@H]1O [Compound 17, 4,5-dihydro-11-O-demethyl-15-demethoxy-18,21-didehydro-21-deoxomacbecin]
solubility [1]: 716 µM (≈ 360 µg/mL) | efflux ratio at 2 h, 10 uM ([2]; read-out: Efflux ratio Papp(B → A)/Papp(A → B)): 6.8 | Papp A→B at 2 h, 10 uM ([2]; read-out: Permeability Apical to Basolateral Papp(A → B) Mean): 0.44 ×10⁻⁶ cm/s | Papp A→B at 2 h, 10 uM ([2]; read-out: Permeability Apical to Basolateral Papp(A → B) Rep. 1): 0.39 ×10⁻⁶ cm/s | Papp A→B at 2 h, 10 uM ([2]; read-out: Permeability Apical to Basolateral Papp(A → B) Rep. 2): 0.49 ×10⁻⁶ cm/s | Papp B→A at 2 h, 10 uM ([2]; read-out: Permeability Basolateral to Apical Papp(B → A) Mean): 2.95 ×10⁻⁶ cm/s | Papp B→A at 2 h, 10 uM ([2]; read-out: Permeability Basolateral to Apical Papp(B → A) Rep. 1): 1.7 ×10⁻⁶ cm/s | Papp B→A at 2 h, 10 uM ([2]; read-out: Permeability Basolateral to Apical Papp(B → A) Rep. 2): 4.21 ×10⁻⁶ cm/s | Efflux Limited [3]: Yes (Papp (B → A)/Papp (A → B) ≧ 3, and Papp (B → A) ≧ 1.0 × 10^-6 cm/s) | detected in plasma up to (time after dosing) ([4]; single intravenous dose of 20 at 3 mg/kg): up to 4 hours | detected in plasma up to (time after dosing) ([4]; single oral dose of 20 at 10 mg/kg): up to 8 hours | Hsp90 inhibition [5]: potent Hsp90 inhibitor
